Results published in patent US11000033B2, “Ketone or oxime compound, and herbicide” (NISSAN CHEMICAL CORPORATION, priority 2014, dated 2021).

Columns and labels:
Format in all cases: in vivo
corn [1] = test: Test Example 4: effect on crop by soil treatment (symbol c); conditions: for c: corn, effect grade on crop: 320 g/ha
How it was run: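 Grown at 25° C. to 30° C. in a greenhouse, the crops came from seed sown spot-wise in sterilized diluvial soil under roughly 1.5 cm of covering soil.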

[2] = system: Echinochloa crus-galli var. crus-galli; test: Test Example 4: herbicidal effect by soil treatment (symbol H); conditions: for H: Echinochloa crus-galli var. crus-galli, herbicidal effect grade: 320 g/ha
How it was run: (§1)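 Seeds were sown in sterilized diluvial soil, covered with about 1.5 cm of soil, and the soil surface was sprayed with a water-diluted emulsion of the compound at a predetermined rate. Plants grew in a greenhouse at 25° C. to 30° C.; effects were scored visually 3 weeks after application.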

Lolium multiflorum Lam. = test: Test Example 4: herbicidal effect by soil treatment (symbol K); conditions: for K: Lolium multiflorum Lam., herbicidal effect grade: 320 g/ha
How it was run: as §1

Veronica persica = test: Test Example 5: herbicidal effect by foliage application, plastic box (symbol R); conditions: 320 g/ha, 3 weeks after application
How it was run: (§2)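 Effect is rated 3 weeks after a foliar spray of water-diluted emulsion concentrate at a predetermined herbicide amount. Plants had grown 14 days in a 25° C. to 30° C. greenhouse from seed in sterilized diluvial soil.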

rice = test: Test Example 4: effect on crop by soil treatment (symbol b); conditions: for b: directly sowed rice plant, effect grade on crop: 320 g/ha
How it was run: (§3)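 Greenhouse culture at 25° C. to 30° C. followed sowing of seed in spots on sterilized diluvial soil with a soil cover close to 1.5 cm thick.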

Scirpus juncoides = test: Test Example 1: herbicidal activity, application before weed generation in submerged conditions (symbol B); conditions: application herbicide amount 320 g/ha
How it was run: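 Paddy pre-emergence test. Formulated emulsion, water-diluted to a predetermined rate, is applied to floodwater on sowing day; rice transplanted at 2.5 leaves. Effect read at 3 weeks on a 0–5 herbicidal-ratio scale.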

rapeseed = test: Test Example 5: effect on crop by foliage application, plastic box (symbol g); conditions: 320 g/ha, 3 weeks after application
How it was run: (§4)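 A greenhouse held between 25° C. and 30° C. was used to grow plants sown spot-wise, beneath ~1.5 cm of soil, in boxes of sterilized diluvial soil.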

Apera spica-venti = test: Test Example 5: herbicidal effect by foliage application, plastic box (symbol L); conditions: 320 g/ha, 3 weeks after application
How it was run: as §2

Alopecurus myosuroides = test: Test Example 4: herbicidal effect by soil treatment (symbol J); conditions: for J: Alopecurus myosuroides, herbicidal effect grade: 320 g/ha
How it was run: as §1

Setaria viridis = test: Test Example 4: herbicidal effect by soil treatment (symbol G); conditions: for G: Setaria viridis, herbicidal effect grade: 320 g/ha
How it was run: as §1

soybean = test: Test Example 5: effect on crop by foliage application, plastic box (symbol d); conditions: 320 g/ha, 3 weeks after application
How it was run: as §4

wheat [3] = test: Test Example 5: effect on crop by foliage application, plastic box (symbol e); conditions: 320 g/ha, 3 weeks after application
How it was run: as §4

Stellaria media = test: Test Example 4: herbicidal effect by soil treatment (symbol P); conditions: for P: Stellaria media, herbicidal effect grade: 320 g/ha
How it was run: as §1

Digitaria ciliaris = test: Test Example 5: herbicidal effect by foliage application, plastic box (symbol F); conditions: 320 g/ha, 3 weeks after application
How it was run: as §2

wheat [4] = test: Test Example 4: effect on crop by soil treatment (symbol e); conditions: for e: wheat, effect grade on crop: 320 g/ha
How it was run: as §3

corn [5] = test: Test Example 5: effect on crop by foliage application, plastic box (symbol c); conditions: 320 g/ha, 3 weeks after application
How it was run: as §4

[6] = system: Echinochloa crus-galli var. crus-galli; test: Test Example 3: herbicidal effect by foliage application, Wagner pot (symbol H); conditions: application herbicide amount 320 g/ha
How it was run: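 Seeds sown in alluvial soil kept under 0.1–0.5 cm water, greenhouse 25–30 °C; 14 d growth. Leaves treated by small sprayer with water-diluted emulsion at a predetermined rate. Effect graded by set scale, 3 weeks.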

[7] = application herbicide amount 320 g/ha

SMILES	c: corn, effect grade on crop (corn [1])	H: Echinochloa crus-galli var. crus-galli, herbicidal effect grade [2]	K: Lolium multiflorum Lam., herbicidal effect grade (Lolium multiflorum Lam.)	R: Veronica persica, herbicidal effect (criteria 0-5) (Veronica persica)	b: directly sowed rice plant, effect grade on crop (rice)	Herbicidal effect grade, B: Scirpus juncoides (Scirpus juncoides)	g: rapeseed, effect on crop (criteria 0-5) (rapeseed)	L: Apera spica-venti, herbicidal effect (criteria 0-5) (Apera spica-venti)	J: Alopecurus myosuroides, herbicidal effect grade (Alopecurus myosuroides)	G: Setaria viridis, herbicidal effect grade (Setaria viridis)	d: soybean, effect on crop (criteria 0-5) (soybean)	e: wheat, effect on crop (criteria 0-5) (wheat [3])	P: Stellaria media, herbicidal effect grade (Stellaria media)	F: Digitaria ciliaris, herbicidal effect (criteria 0-5) (Digitaria ciliaris)	e: wheat, effect grade on crop (wheat [4])	c: corn, effect on crop (criteria 0-5) (corn [5])	herbicidal effect on H (Echinochloa crus-galli var. crus-galli), grade 0-5 [6]	further results
CON=C(C)CC1CC(OC(=O)COc2ccc(I)cc2)=C(c2c(C)cc(C)cc2C)C1=O (centres unmarked) [1-082]	4 (Herbicidal ratio of 70% or higher and lower than 90%)	5 (Herbicidal ratio of 90% or more (almost completely withered))	5 (Herbicidal ratio of 90% or more (almost completely withered))	0 (Herbicidal ratio of 5% or lower (almost no effect))	5 (Herbicidal ratio of 90% or more (almost completely withered))	5 (Herbicidal ratio of 90% or more (almost completely withered))	4 (Herbicidal ratio of 70% or higher and lower than 90%)	5 (Herbicidal ratio of 90% or more (almost completely withered))	5 (Herbicidal ratio of 90% or more (almost completely withered))	5 (Herbicidal ratio of 90% or more (almost completely withered))	4 (Herbicidal ratio of 70% or higher and lower than 90%)	5 (Herbicidal ratio of 90% or more (almost completely withered))	0 (Herbicidal ratio of 5% or lower (almost no effect))	5 (Herbicidal ratio of 90% or more (almost completely withered))	3 (Herbicidal ratio of 40% or higher and lower than 70%)	5 (Herbicidal ratio of 90% or more (almost completely withered))	5 (Herbicidal ratio of 90% or more (almost completely withered))	–
CON=C(C)CC1CC(OC(=O)COc2ccccc2[N+](=O)[O-])=C(c2c(C)cc(C)cc2C)C1=O (centres unmarked) [1-071]	–	–	–	–	–	4 (Herbicidal ratio of 70% or higher and lower than 90%)	–	–	–	–	–	–	–	–	–	–	5 (Herbicidal ratio of 90% or more (almost completely withered))	c (corn) effect on crop grade (corn [1]; [7]): 4 (Herbicidal ratio of 70% or higher and lower than 90%); H (Echinochloa crus-galli var. crus-galli) herbicidal effect grade [2, 7]: 5 (Herbicidal ratio of 90% or more (almost completely withered)); K (Lolium multiflorum Lam.) herbicidal effect grade (Lolium multiflorum Lam.; [7]): 5 (Herbicidal ratio of 90% or more (almost completely withered)); R: Veronica persica, herbicidal effect grade (Veronica persica): 1 (Herbicidal ratio of 5% or higher and lower than 20%); b (directly sowed rice plant) effect on crop grade (rice; [7]): 5 (Herbicidal ratio of 90% or more (almost completely withered)); g: rapeseed, effect on crop grade (rapeseed): 4 (Herbicidal ratio of 70% or higher and lower than 90%); L: Apera spica-venti, herbicidal effect grade (Apera spica-venti): 5 (Herbicidal ratio of 90% or more (almost completely withered)); J (Alopecurus myosuroides) herbicidal effect grade (Alopecurus myosuroides; [7]): 5 (Herbicidal ratio of 90% or more (almost completely withered)); G (Setaria viridis) herbicidal effect grade (Setaria viridis; [7]): 5 (Herbicidal ratio of 90% or more (almost completely withered)); d: soybean, effect on crop grade (soybean): 4 (Herbicidal ratio of 70% or higher and lower than 90%); e: wheat, effect on crop grade (wheat [3]): 5 (Herbicidal ratio of 90% or more (almost completely withered)); P (Stellaria media) herbicidal effect grade (Stellaria media; [7]): 0 (Herbicidal ratio of 5% or lower (almost no effect)); F: Digitaria ciliaris, herbicidal effect grade (Digitaria ciliaris): 5 (Herbicidal ratio of 90% or more (almost completely withered)); e (wheat) effect on crop grade (wheat [4]; [7]): 4 (Herbicidal ratio of 70% or higher and lower than 90%); c: corn, effect on crop grade (corn [5]): 5 (Herbicidal ratio of 90% or more (almost completely withered))
CC#CC(=O)OC1=C(c2c(C)cc(C)cc2C)C(=O)C(CC(C)=NOC)C1 (centres unmarked) [1-095]	5 (Herbicidal ratio of 90% or more (almost completely withered))	5 (Herbicidal ratio of 90% or more (almost completely withered))	5 (Herbicidal ratio of 90% or more (almost completely withered))	3 (Herbicidal ratio of 40% or higher and lower than 70%)	5 (Herbicidal ratio of 90% or more (almost completely withered))	5 (Herbicidal ratio of 90% or more (almost completely withered))	4 (Herbicidal ratio of 70% or higher and lower than 90%)	5 (Herbicidal ratio of 90% or more (almost completely withered))	5 (Herbicidal ratio of 90% or more (almost completely withered))	5 (Herbicidal ratio of 90% or more (almost completely withered))	2 (Herbicidal ratio of 20% or higher and lower than 40%)	5 (Herbicidal ratio of 90% or more (almost completely withered))	0 (Herbicidal ratio of 5% or lower (almost no effect))	5 (Herbicidal ratio of 90% or more (almost completely withered))	4 (Herbicidal ratio of 70% or higher and lower than 90%)	5 (Herbicidal ratio of 90% or more (almost completely withered))	5 (Herbicidal ratio of 90% or more (almost completely withered))	–
COCC(=O)OC1=C(c2c(C)cc(C)cc2C)C(=O)C(CC(C)=NOC)C1 (centres unmarked) [1-093]	5 (Herbicidal ratio of 90% or more (almost completely withered))	5 (Herbicidal ratio of 90% or more (almost completely withered))	5 (Herbicidal ratio of 90% or more (almost completely withered))	3 (Herbicidal ratio of 40% or higher and lower than 70%)	5 (Herbicidal ratio of 90% or more (almost completely withered))	5 (Herbicidal ratio of 90% or more (almost completely withered))	4 (Herbicidal ratio of 70% or higher and lower than 90%)	5 (Herbicidal ratio of 90% or more (almost completely withered))	5 (Herbicidal ratio of 90% or more (almost completely withered))	5 (Herbicidal ratio of 90% or more (almost completely withered))	3 (Herbicidal ratio of 40% or higher and lower than 70%)	5 (Herbicidal ratio of 90% or more (almost completely withered))	0 (Herbicidal ratio of 5% or lower (almost no effect))	5 (Herbicidal ratio of 90% or more (almost completely withered))	4 (Herbicidal ratio of 70% or higher and lower than 90%)	5 (Herbicidal ratio of 90% or more (almost completely withered))	5 (Herbicidal ratio of 90% or more (almost completely withered))	–
